Reference: publication PMC12564265, “Navigating the Deep Eutectic Solvent Landscape: Experimental and Machine Learning Solubility Explorations of Syringic, p-Coumaric, and Caffeic Acids” (International Journal of Molecular Sciences, 2025)
Several values for one entry are separate records, joined by “and”; a condition that tells them apart may be missing. Equal values may be shown once.

Assay: Shake-flask solubility with spectrophotometric measurement in aqueous DES mixtures
Format: physicochemical
Protocol: In order to determine the solubility of the three studied phenolic acids in deep eutectic solvents, a very well-established shake-flask method coupled with spectrophotometric measurements was utilized. The initial procedure involved the preparation of various DESs, which was conducted by mixing their HBA and HBD counterparts in a glass vessel and heating the composition until the formation of a transparent, uniform liquid. […] For additional measurements, the DESs were mixed with water in varying proportions, creating aqueous DES systems. Saturated solutions of CAF, SYR, and COU were obtained by adding excess amounts of these compounds to test tubes containing either a neat deep eutectic solvent or its aqueous solution. Such samples were placed in the Orbital Shaker Incubator ES-20/60 from Biosan (Riga, Latvia) and heated for 24 h at 25 °C, 30 °C, 35 °C, and 40 °C (±0.1 °C) with simultaneous mixing at 60 rpm. Before measurements, the samples were filtered using a PTFE syringe filter from Qpore (Dallas, TX, USA) with a 0.22 μm pore size. In order to avoid possible precipitation of the saturated solutions at decreased temperatures, the test tubes, syringes, pipette tips, and filters were kept at a temperature identical to that of the samples. The spectrophotometric measurements required the preparation of calibration curves for the three APIs. This involved the preparation of a stock solution of each compound in methanol, which was later successfully diluted, and the obtained solutions of varying concentrations were measured using an A360 spectrophotometer from AOE Instruments (Shanghai, China). The wavelength range was set to 200-500 nm, and the resolution was 1 nm. The analytical wavelengths were determined to be 324 nm for caffeic acid, 273 nm for syringic acid, and 308 nm for p-coumaric acid. The final regression equations, obtained after averaging three distinct sets of measurements, are collected in Table 2 together with determination coefficients and limits of detection (LOD) and quantification (LOQ) for the calibration curves. The measurements of the samples were conducted with the same spectrophotometer and identical settings. Methanol was used for the dilution of the samples so that they could remain within the linearity range of the method. Complete spectra of the samples were recorded, but for the solubility determination, the absorbance values at a specific analytical wavelength were considered. These values were combined with the corresponding regression equations of the calibration curves and served for the calculation of the concentration of the three phenolic acids in the studied samples. The densities of such samples were also measured, and for this task 1 mL of each sample was weighed to a precision of 0.1 mg using an AS 110 R2.PLUS analytical balance from […] (Radom, Poland). The obtained densities enabled the calculation of mole fractions of CAF, SYR, and COU dissolved in the studied DESs. For each considered system, three distinct measurements were conducted, and the results were averaged.

Mole fraction solubility (Bet – GLY 1:2 + water, x*DES 0.1, 25°C): 0.0093±0.0001 mole fraction
Mole fraction solubility (Bet – GLY 1:2 + water, x*DES 0.1, 30°C): 0.0116±0.0001 mole fraction
Mole fraction solubility (Bet – GLY 1:2 + water, x*DES 0.1, 35°C): 0.0146±0.0001 mole fraction
Mole fraction solubility (Bet – GLY 1:2 + water, x*DES 0.1, 40°C): 0.0188±0.0001 mole fraction
Mole fraction solubility (Bet – GLY 1:2 + water, x*DES 0.2, 25°C): 0.0212±0.0003 mole fraction
Mole fraction solubility (Bet – GLY 1:2 + water, x*DES 0.2, 30°C): 0.0261±0.0002 mole fraction
Mole fraction solubility (Bet – GLY 1:2 + water, x*DES 0.2, 35°C): 0.0328±0.0003 mole fraction
Mole fraction solubility (Bet – GLY 1:2 + water, x*DES 0.2, 40°C): 0.0429±0.0003 mole fraction
Mole fraction solubility (Bet – GLY 1:2 + water, x*DES 0.3, 25°C): 0.0316±0.0004 mole fraction
Mole fraction solubility (Bet – GLY 1:2 + water, x*DES 0.3, 30°C): 0.0385±0.0003 mole fraction
Mole fraction solubility (Bet – GLY 1:2 + water, x*DES 0.3, 35°C): 0.0489±0.0004 mole fraction
Mole fraction solubility (Bet – GLY 1:2 + water, x*DES 0.3, 40°C): 0.0631±0.0003 mole fraction
Mole fraction solubility (Bet – GLY 1:2 + water, x*DES 0.4, 25°C): 0.0424±0.0005 mole fraction
Mole fraction solubility (Bet – GLY 1:2 + water, x*DES 0.4, 30°C): 0.0510±0.0004 mole fraction
Mole fraction solubility (Bet – GLY 1:2 + water, x*DES 0.4, 35°C): 0.0654±0.0004 mole fraction
Mole fraction solubility (Bet – GLY 1:2 + water, x*DES 0.4, 40°C): 0.0850±0.0007 mole fraction
Mole fraction solubility (Bet – GLY 1:2 + water, x*DES 0.5, 25°C): 0.0545±0.0003 mole fraction
Mole fraction solubility (Bet – GLY 1:2 + water, x*DES 0.5, 30°C): 0.0655±0.0004 mole fraction
Mole fraction solubility (Bet – GLY 1:2 + water, x*DES 0.5, 35°C): 0.0843±0.0006 mole fraction
Mole fraction solubility (Bet – GLY 1:2 + water, x*DES 0.5, 40°C): 0.1107±0.0012 mole fraction
Mole fraction solubility (Bet – GLY 1:2 + water, x*DES 0.6, 25°C): 0.0687±0.0004 mole fraction
Mole fraction solubility (Bet – GLY 1:2 + water, x*DES 0.6, 30°C): 0.0827±0.0006 mole fraction
Mole fraction solubility (Bet – GLY 1:2 + water, x*DES 0.6, 35°C): 0.1045±0.0009 mole fraction
Mole fraction solubility (Bet – GLY 1:2 + water, x*DES 0.6, 40°C): 0.1410±0.0021 mole fraction
Mole fraction solubility (Bet – GLY 1:2 + water, x*DES 0.7, 25°C): 0.0803±0.0006 mole fraction
Mole fraction solubility (Bet – GLY 1:2 + water, x*DES 0.7, 30°C): 0.0972±0.0008 mole fraction
Mole fraction solubility (Bet – GLY 1:2 + water, x*DES 0.7, 35°C): 0.1233±0.0020 mole fraction
Mole fraction solubility (Bet – GLY 1:2 + water, x*DES 0.7, 40°C): 0.1617±0.0014 mole fraction
Mole fraction solubility (Bet – GLY 1:2 + water, x*DES 0.8, 25°C): 0.0900±0.0007 mole fraction
Mole fraction solubility (Bet – GLY 1:2 + water, x*DES 0.8, 30°C): 0.1117±0.0011 mole fraction
Mole fraction solubility (Bet – GLY 1:2 + water, x*DES 0.8, 35°C): 0.1413±0.0023 mole fraction
Mole fraction solubility (Bet – GLY 1:2 + water, x*DES 0.8, 40°C): 0.1818±0.0015 mole fraction
Mole fraction solubility (Bet – GLY 1:2 + water, x*DES 0.9, 30°C): 0.1149±0.0011 mole fraction
Mole fraction solubility (Bet – GLY 1:2 + water, x*DES 0.9, 35°C): 0.1464±0.0025 mole fraction
Mole fraction solubility (Bet – GLY 1:2 + water, x*DES 0.9, 40°C): 0.1934±0.0021 mole fraction
Mole fraction solubility (Bet – GLY 1:2, x*DES 1.0 (neat DES), 25°C): 0.0898±0.0003 mole fraction
Mole fraction solubility (Bet – GLY 1:2, x*DES 1.0 (neat DES), 30°C): 0.1090±0.0010 mole fraction
Mole fraction solubility (Bet – GLY 1:2, x*DES 1.0 (neat DES), 35°C): 0.1389±0.0009 mole fraction
Mole fraction solubility (Bet – GLY 1:2, x*DES 1.0 (neat DES), 40°C): 0.1842±0.0017 mole fraction
Increase in the solubility compared to the neat DES (Bet-GLY 1:2, x*DES = 0.9 (xwater = 0.1), 25 °C): 3%
Mole fraction solubility (ChCl – TEG 1:2 + water, x*DES 0.1, 25°C): 0.0131±0.0002 mole fraction
Mole fraction solubility (ChCl – TEG 1:2 + water, x*DES 0.1, 30°C): 0.0168±0.0002 mole fraction
Mole fraction solubility (ChCl – TEG 1:2 + water, x*DES 0.1, 35°C): 0.0216±0.0002 mole fraction
Mole fraction solubility (ChCl – TEG 1:2 + water, x*DES 0.1, 40°C): 0.0287±0.0003 mole fraction
Mole fraction solubility (ChCl – TEG 1:2 + water, x*DES 0.2, 25°C): 0.0283±0.0002 mole fraction
Mole fraction solubility (ChCl – TEG 1:2 + water, x*DES 0.2, 30°C): 0.0357±0.0002 mole fraction
Mole fraction solubility (ChCl – TEG 1:2 + water, x*DES 0.2, 35°C): 0.0459±0.0004 mole fraction
Mole fraction solubility (ChCl – TEG 1:2 + water, x*DES 0.2, 40°C): 0.0604±0.0004 mole fraction
Mole fraction solubility (ChCl – TEG 1:2 + water, x*DES 0.3, 25°C): 0.0412±0.0004 mole fraction
Mole fraction solubility (ChCl – TEG 1:2 + water, x*DES 0.3, 30°C): 0.0506±0.0006 mole fraction
Structure (SMILES): O=C(O)C=Cc1ccc(O)cc1 [p-coumaric acid, 4-hydroxycinnamic acid]
Mole fraction solubility (Bet – GLY 1:2 + water, x*DES 0.9, 25°C): 0.0926 mole fraction and 0.0926±0.0006 mole fraction
